{"source": "patent US20140357512A1", "about": "“HISTONE DEACETYLASE (HDAC) BIOMARKERS IN MULTIPLE MYELOMA” (priority 2013, published 2014)", "tested_on": "human myeloma cell line MM.1S", "experiment": "SILAC acetylated-lysine peptide profiling, HDAC inhibitor vs DMSO (light/heavy ratio)", "type": "cell-based", "excerpt": "An embodiment of the invention comprises utilizing the SILAC method in order to quantitate changes in protein expression between two or more populations of cells. The SILAC method is a technique based on mass spectrometry that detects differences in protein abundance among samples using non-radioactive isotopic labeling. The SILAC method is known in the art, and described in detail in Ong et al., “Stable Isotope Labeling by Amino Acids in Cell Culture, SILAC, as a Simple and Accurate Approach to Expression Proteomics”, Molecular & Cellular Proteomics, vol. 1, pp. 376-386 (2002), which is incorporated herein by reference in its entirety.\nBriefly, the SILAC method involves growing two populations of cells in cell culture. The first population of cells is grown in growth media containing normal amino acids (“normal media”). The second population of cells is grown in media lacking a standard essential amino acid (such as lysine), but is then supplemented with a non-radioactive, isotopically labeled form of that essential amino acid (such as lysine labeled with ^13C atoms, rather than normal ^12C atoms), which is called “heavy media”. When the two populations of cells are each growing in the medium, they incorporate the amino acids into all of their proteins. The growth of cells maintained in the heavy media is no different from that in normal media. All peptides containing the heavy amino acids are heavier than their normal counterparts. The cells from each of the two populations of cells are lysed. The lysates from each of the two cell populations are then combined. The combined cell lysates are then analyzed by mass spectrometry. Pairs of chemically identical peptides of different stable isotope composition can be differentiated in a mass spectrometer due to their difference in mass. The ratio of peak intensities in the mass spectrum for such peptide pairs reflects the abundance ratio for the two proteins.\nThis example describes SILAC studies that were performed to compare the effects of three different HDAC inhibitors (Compound A, Compound B, and tubastatin A) to a control on a human multiple myeloma cell line. The HDAC inhibitors were also compared amongst themselves to determine differences in their effects.\nA human myeloma cell line MM.1S was grown using either ^12C (light) or ^13C (heavy) lysine containing culture medium. The “heavy” cells were treated with DMSO as the control, and the “light” cells were treated with a single HDAC inhibitor at 37° C. for 6 hours. The heavy and light cells were lysed, and the lysates were mixed in 1:1 ratio and digested with the protease trypsin. The acetylated lysine containing peptides (due to the action of the HDAC inhibitor) in the digested peptide pool were captured by a non-specific anti-acetylated lysine antibody cocktail (the antibodies identify both light and heavy acetylated peptides), and subjected to mass spectrometry analysis in order to identify thousands of individual peptides.\nThousands of peptides were identified in pairs (^12C and ^13C) due to their known mass differences. The amino acid sequence and quantitative ratio (Light/Heavy) of a given peptide in two differentially treated cell lysates were then determined and annotated with their possible protein (gene) sources.\nAs stated above, three HDAC inhibitors (Compound A, Compound B, and Tubastatin A) were used. Thus, the SILAC method was performed three times, with a different HDAC inhibitor compared to a control each time. Accordingly, there are three pairs of quantitative data in the table below, i.e., Compound A:DMSO, Compound B:DMSO, and Tubastatin A:DMSO. A cut-off of 1.30 fold of change (increase or decrease) was then used to determine “changed” or “+” in the table, and any peptides with a fold of change less than 1.3 fold were determined to be “unchanged” or “0” in the table. Those peptides that were not identified were marked as “NA” in the table. […]", "data": [{"compound": "O=C(NO)c1cnc(NC2(c3cccc(F)c3)CCCCC2)nc1", "note": "[Compound B, 2-((1-(3-fluorophenyl)cyclohexyl)amino)-N-hydroxypyrimidine-5-carboxamide]", "values": [{"measurement": "light to heavy ratio (L/H ratio) of acetylated peptide TNFSNEK(ac)TISK (SEQ ID NO: 357)", "setting": "Acylphosphatase-2 [113], ACYP2, drug:DMSO", "result": 0.84, "unit": "log 2"}, {"measurement": "light to heavy ratio (L/H ratio), log 2 scale, acetylated peptide SELTGK(ac)FEK (SEQ ID NO: 778)", "setting": "Annexin A5 [76], gene ANXA5, drug:DMSO", "result": 0.00}, {"measurement": "light to heavy ratio (L/H ratio) of acetylated peptide TKYEK(ac)SLYSMIK (SEQ ID NO: 270)", "setting": "Annexin A6 [299], ANXA6, drug:DMSO", "result": 0.00, "unit": "log 2"}, {"measurement": "light to heavy ratio (L/H ratio) of acetylated peptide AINEAYK(ac)EDYHK (SEQ ID NO: 282)", "setting": "Annexin A6 [478], ANXA6, drug:DMSO", "result": 0.00, "unit": "log 2"}, {"measurement": "light to heavy ratio (L/H ratio) of acetylated peptide NKPLFFADK(ac)LYK (SEQ ID NO: 298)", "setting": "Annexin A6 [607], ANXA6, drug:DMSO", "result": 0.00, "unit": "log 2"}, {"measurement": "light to heavy ratio (L/H ratio) of acetylated peptide GAGTDEK(ac)TLTR (SEQ ID NO: 621)", "setting": "Annexin A6 [620], gene ANXA6, inhibitor:DMSO", "result": 0.00, "unit": "log 2"}, {"measurement": "light to heavy ratio (L/H ratio), log 2 scale, acetylated peptide EFIEK(ac)YDK (SEQ ID NO: 779)", "setting": "Annexin A6 [644], gene ANXA6, drug:DMSO", "result": 0.00}, {"measurement": "light to heavy ratio (L/H ratio) of acetylated peptide DDNGK(ac)PYVLPSVR (SEQ ID NO: 579)", "setting": "Aspartate aminotransferase mitochondrial [73], gene GOT2, inhibitor:DMSO", "result": 0.00, "unit": "log 2"}, {"measurement": "light to heavy ratio (L/H ratio) of acetylated peptide LVGELK(ac)LDR (SEQ ID NO: 367)", "setting": "Bactericidal/permeability-increasing protein [237], BPI, drug:DMSO", "result": "−0.52", "unit": "log 2"}, {"measurement": "light to heavy ratio (L/H ratio) of acetylated peptide ELK(ac)EIQYGIR (SEQ ID NO: 540)", "setting": "Branched-chain-amino-acid aminotransferase [337], gene BCAT2, inhibitor:DMSO", "result": 0.00, "unit": "log 2"}, {"measurement": "L/H ratio of acetylated peptide FYGDEEK(ac)[…] (SEQ ID NO: 25)", "setting": "CALR [62], log 2 scale, drug vs DMSO", "result": 0.00}, {"measurement": "light to heavy ratio (L/H ratio) of acetylated peptide AGLQVYNK(ac)CWK (SEQ ID NO: 260)", "setting": "CD59 glycoprotein [63], CD59, drug:DMSO", "result": 0.00, "unit": "log 2"}, {"measurement": "L/H ratio of acetylated peptide", "setting": "CHAFEK(ac)[…] (SEQ ID NO: 425), NADH dehydrogenase [ubiquinone] iron-sulfur protein 5 [38], NDUFS5", "result": "−0.63", "unit": "log 2"}, {"measurement": "L/H ratio of acetylated peptide […](ac)R (SEQ ID NO: 26)", "setting": "CLTC [637], log 2 scale, drug vs DMSO", "result": 0.00}, {"measurement": "L/H ratio of acetylated peptide FK(ac)ESFAEMNR (SEQ ID NO: 1)", "setting": "COX4I1 [87], log 2 scale, drug vs DMSO", "result": "−0.67"}, {"measurement": "L/H ratio of acetylated peptide […](ac)QLCTIPR (SEQ ID NO: 27)", "setting": "CREBBP [1216], log 2 scale, drug vs DMSO", "result": 0.00}, {"measurement": "L/H ratio of acetylated peptide TNK(ac)NK(ac)SSISR (SEQ ID NO: 13)", "setting": "CREBBP [1595:1597], log 2 scale, drug vs DMSO", "result": 0.62}, {"measurement": "L/H ratio of acetylated peptide ALK(ac)DLYCHK (SEQ ID NO: 28)", "setting": "CREM [240], log 2 scale, drug vs DMSO", "result": 0.00}, {"measurement": "L/H ratio of acetylated peptide LYCPK(ac)CMDVYTPK (SEQ ID NO: 29)", "setting": "CSNK2B [139], log 2 scale, drug vs DMSO", "result": 0.00}, {"measurement": "light to heavy ratio (L/H ratio) of acetylated peptide NSFDCFK(ac)K (SEQ ID NO: 605)", "setting": "Calcium-binding mitochondrial carrier protein Aralar2 [379], gene SLC25A13, inhibitor:DMSO", "result": 0.00, "unit": "log 2"}, {"measurement": "light to heavy ratio (L/H ratio) of acetylated peptide FVLSSGK(ac)FYGDEEKDK (SEQ ID NO: 281)", "setting": "Calreticulin [55], CALR, drug:DMSO", "result": 0.00, "unit": "log 2"}, {"measurement": "light to heavy ratio (L/H ratio) of acetylated peptide NVLINK(ac)DIR (SEQ ID NO: 257)", "setting": "Calreticulin [159], CALR, drug:DMSO", "result": 0.00, "unit": "log 2"}, {"measurement": "light to heavy ratio (L/H ratio) of acetylated peptide […](ac)GLLK (SEQ ID NO: 569)", "setting": "Chloride intracellular channel protein 1 [131], gene CLIC1, inhibitor:DMSO", "result": 0.00, "unit": "log 2"}, {"measurement": "light to heavy ratio (L/H ratio) of acetylated peptide SMSTEGLMK(ac)FVDSK (SEQ ID NO: 330)", "setting": "Citrate synthase mitochondrial [459], CS, drug:DMSO", "result": 0.76, "unit": "log 2"}, {"measurement": "light to heavy ratio (L/H ratio), log 2 scale, acetylated peptide MIYASSK(ac)DAIKK (SEQ ID NO: 763)", "setting": "Cofilin-1 [121], gene CFL1, drug:DMSO", "result": 0.00}, {"measurement": "light to heavy ratio (L/H ratio) of acetylated peptide AAEEVEAK(ac)FK (SEQ ID NO: 328)", "setting": "Coiled-coil-helix-coiled-coil-helix domain-containing protein 3 mitochondrial [173], CHCHD3, drug:DMSO", "result": "−0.42", "unit": "log 2"}, {"measurement": "light to heavy ratio (L/H ratio) of acetylated peptide ASEIGEK(ac)YR (SEQ ID NO: 586)", "setting": "Conserved hypothetical protein [484], gene KIAA0947, inhibitor:DMSO", "result": 0.00, "unit": "log 2"}, {"measurement": "light to heavy ratio (L/H ratio) of acetylated peptide DHCVAHK(ac)LFNNLK (SEQ ID NO: 608)", "setting": "Cytochrome b-c1 complex subunit 6 mitochondrial [85], gene UQCRH, inhibitor:DMSO", "result": 0.00, "unit": "log 2"}, {"measurement": "light to heavy ratio (L/H ratio) of acetylated peptide YFDEK(ac)IAK (SEQ ID NO: 563)", "setting": "D-beta-hydroxybutyrate dehydrogenase mitochondrial [280], gene BDH1, inhibitor:DMSO", "result": 0.00, "unit": "log 2"}, {"measurement": "L/H ratio of acetylated peptide FK(ac)[…] (SEQ ID NO: 30)", "setting": "DAZAP1 [59], log 2 scale, drug vs DMSO", "result": 0.00}, {"measurement": "L/H ratio of acetylated peptide APTIVGK(ac)SSLNPILFR (SEQ ID NO: 31)", "setting": "DDOST [189], log 2 scale, drug vs DMSO", "result": 0.00}, {"measurement": "L/H ratio of acetylated peptide DWVLNEFK(ac)HGK (SEQ ID NO: 33)", "setting": "DDX5 [388], log 2 scale, drug vs DMSO", "result": 0.00}]}]}
